Experimental data from patent US8183262B2, “Pyridine derivatives as mGluR2 antagonists” (Hoffmann-La Roche Inc., priority 2007, dated 2012).

In the case of `Cc1cc(-c2cc(C(F)(F)F)nc(-n3cnc(-c4ccc(N)nc4)c3)n2)ccc1Cl` [Example 104, 5-{1-[4-(4-Chloro-3-methyl-phenyl)-6-trifluoromethyl-pyrimidin-2-yl]-1H-imidazol-4-yl}-pyridin-2-ylamine], the melting point is reported as 276 °C.
`Nc1ccc(-c2cn(-c3nc(-c4ccc(C(F)(F)F)cc4)cc(C(F)F)n3)cn2)cn1` [Example 32, 5-{1-[4-Difluoromethyl-6-(4-trifluoromethyl-phenyl)-pyrimidin-2-yl]-1H-imidazol-4-yl}-pyridin-2-ylamine] showed a melting point of 253.5 °C.
`Cc1cc(-c2ccc(OC(F)(F)F)cc2)cc(-c2cccc(-c3cccc(S(=O)(=O)NC(C)(C)C)c3)n2)n1` [Example 436, N-tert-Butyl-3-[6′-methyl-4′-(4-trifluoromethoxy-phenyl)-[2,2′]bipyridinyl-6-yl]-benzenesulfonamide] gave a melting point of 148 °C.
`NS(=O)(=O)c1ccc(-c2cccc(-c3nc(-c4ccc(Cl)cc4Cl)cc(C(F)(F)F)n3)c2)s1` [Example 411, 5-{3-[4-(2,4-Dichloro-phenyl)-6-trifluoromethyl-pyrimidin-2-yl]-phenyl}-thiophene-2-sulfonic acid amide] showed a melting point of 237.5 °C.
Work on `Cc1cc(-c2ccc(C(F)(F)F)cc2)cc(-c2cccc(-c3cccc(N)c3)n2)n1` [Example 327, 3-[6′-Methyl-4′-(4-trifluoromethyl-phenyl)-[2,2′]bipyridinyl-6-yl]-phenylamine] yielded a melting point of 167 °C.
Compound `Cc1cc(-c2ccc(Cl)cc2)nc(-n2cnc(-c3ncc(S(N)(=O)=O)s3)c2)n1` [Example 200, 2-{1-[4-(4-Chloro-phenyl)-6-methyl-pyrimidin-2-yl]-1H-imidazol-4-yl}-thiazole-5-sulfonic acid amide] has a melting point of 255.5 °C.
Work on `FC(F)(F)c1cc(-c2ccc(Cl)cc2)nc(-c2nc(-c3cccnc3)no2)n1` [Example 29, 4-(4-Chloro-phenyl)-2-(3-pyridin-3-yl-[1,2,4]oxadiazol-5-yl)-6-trifluoromethyl-pyrimidine] yielded a melting point of 168.5 °C.
`Cc1cc(-c2ccc(C(F)(F)F)cc2)nc(-n2cnc(-c3cccc(S(N)(=O)=O)c3)c2)n1` [Example 184, 3-{1-[4-Methyl-6-(4-trifluoromethyl-phenyl)-pyrimidin-2-yl]-1H-imidazol-4-yl}-benzenesulfonamide] showed a melting point of 186 °C.
In the case of `FC(F)(F)c1ccc(-c2cc(C(F)(F)F)nc(-c3ccnc(-c4cccnc4)c3)n2)cc1` [Example 85, 4-[4-Trifluoromethyl-6-(4-trifluoromethyl-phenyl)-pyrimidin-2-yl]-[2,3′]bipyridinyl], the melting point is reported as 247 °C.
For `Cc1nc(-c2cn(-c3cc(-c4ccc(C(F)(F)F)cc4)cc(C(F)(F)F)n3)cn2)sc1S(N)(=O)=O` [Example 312, 4-Methyl-2-{1-[6-trifluoromethyl-4-(4-trifluoromethyl-phenyl)-pyridin-2-yl]-1H-imidazol-4-yl}-thiazole-5-sulfonic acid amide], the melting point was 170 °C (dec.).
For `NS(=O)(=O)c1ccc(-c2cc(-c3cc(C(F)(F)F)cc(-c4ccc(C(F)(F)F)cc4)n3)ccn2)s1` [Example 321, 5-[4-Trifluoromethyl-6-(4-trifluoromethyl-phenyl)-[2,4′]bipyridinyl-2′-yl]-thiophene-2-sulfonic acid amide], the melting point was 97 °C (dec.).
In the case of `Nc1cccc(-c2cccc(-c3nc(-c4ccc(C(F)(F)F)cc4)cc(C(F)(F)F)n3)c2)c1` [Example 220, 3′-[4-Trifluoromethyl-6-(4-trifluoromethyl-phenyl)-pyrimidin-2-yl]-biphenyl-3-ylamine], the melting point is reported as 156.5 °C.
`Cc1cc(-c2ccc(Cl)cc2)cc(-c2cccc(-c3ccc(N)nc3)c2)n1` [Example 229, 5-{3-[4-(4-Chloro-phenyl)-6-methyl-pyridin-2-yl]-phenyl}-pyridin-2-ylamine] showed a melting point of 76 to 95 °C.
For `Cc1cc(-c2ccc(Cl)c(C)c2)nc(-n2cnc(-c3ccc(N)nc3)c2)n1` [Example 226, 5-{1-[4-(4-Chloro-3-methyl-phenyl)-6-methyl-pyrimidin-2-yl]-1H-imidazol-4-yl}-pyridin-2-ylamine], the melting point was 202 °C (dec.).
`NS(=O)(=O)c1cccc(-c2cc(-c3nc(-c4ccc(Cl)c(Cl)c4)cc(C(F)(F)F)n3)ccn2)c1` [Example 203, 3-{4-[4-(3,4-Dichloro-phenyl)-6-trifluoromethyl-pyrimidin-2-yl]-pyridin-2-yl}-benzenesulfonamide] showed a melting point of 247 °C.
Compound `Cc1cc(-c2ccc(Cl)cc2)nc(-c2cccc(-c3ccc(S(N)(=O)=O)s3)c2)n1` [Example 173, 5-{3-[4-(4-Chloro-phenyl)-6-methyl-pyrimidin-2-yl]-phenyl}-thiophene-2-sulfonic acid amide] has a melting point of 227 °C.
`Cc1cc(-c2cc(C(F)(F)F)nc(-c3nc(-c4ccc(N)nc4)no3)n2)ccc1C(F)(F)F` [Example 130, 5-{5-[4-(3-Methyl-4-trifluoromethyl-phenyl)-6-trifluoromethyl-pyrimidin-2-yl]-[1,2,4]oxadiazol-3-yl}-pyridin-2-ylamine] gave a melting point of 223 °C.
`Nc1ccc(-c2noc(-c3nc(-c4ccc(C(F)(F)F)cc4)cc(C(F)F)n3)n2)cn1` [Example 36, 5-{5-[4-Difluoromethyl-6-(4-trifluoromethyl-phenyl)-pyrimidin-2-yl]-[1,2,4]oxadiazol-3-yl}-pyridin-2-ylamine] gave a melting point of 219 °C.
With `Cc1cc(-c2ccc(C(F)(F)F)cc2)cc(-c2cccc(-c3cccc(S(=O)(=O)NC(C)(C)CO)c3)n2)n1` [Example 363, N-(2-Hydroxy-1,1-dimethyl-ethyl)-3-[6′-methyl-4′-(4-trifluoromethyl-phenyl)-[2,2′]bipyridinyl-6-yl]-benzenesulfonamide] the melting point was 171 °C.
`Cc1cc(-c2ccc(C(F)(F)F)cc2)cc(-c2cccc(-c3cccc(S(=O)(=O)NC4CC4)c3)n2)n1` [Example 424, N-Cyclopropyl-3-[6′-methyl-4′-(4-trifluoromethyl-phenyl)-[2,2′]bipyridinyl-6-yl]-benzenesulfonamide] gave a melting point of 150 °C.
Work on `Cc1cc(-c2ccc(C(F)(F)F)cc2)cc(-c2cccc(-c3cccc(S(=O)(=O)N(C)C)c3)n2)n1` [Example 423, N,N-Dimethyl-3-[6′-methyl-4′-(4-trifluoromethyl-phenyl)-[2,2′]bipyridinyl-6-yl]-benzenesulfonamide] yielded a melting point of 155 °C.
With `Nc1ccc(-c2cn(-c3nc(-c4ccc(C(F)(F)F)c(F)c4)cc(C(F)(F)F)n3)cn2)cn1` [Example 94, 5-{1-[4-(3-Fluoro-4-trifluoromethyl-phenyl)-6-trifluoromethyl-pyrimidin-2-yl]-1H-imidazol-4-yl}-pyridin-2-ylamine] the melting point was 309 °C.
For `Cc1cc(-c2ccc3c(c2)OCO3)cc(-c2cccc(-c3ccc(N)nc3)c2)n1` [Example 276, 5-[3-(4-Benzo[1,3]dioxol-5-yl-6-methyl-pyridin-2-yl)-phenyl]-pyridin-2-ylamine], the melting point was 203 °C.
In the case of `Cc1cc(-c2ccc(C(F)(F)F)cc2)nc(-c2ccnc(-c3ccc(S(N)(=O)=O)s3)c2)c1` [Example 323, 5-[4-Methyl-6-(4-trifluoromethyl-phenyl)-[2,4′]bipyridinyl-2′-yl]-thiophene-2-sulfonic acid amide], the melting point is reported as 228 °C (dec.).
`Nc1ccc(-c2cccc(-c3cc(-c4ccc(Cl)cc4)cc(C(F)(F)F)n3)c2)cn1` [Example 235, 5-{3-[4-(4-Chloro-phenyl)-6-trifluoromethyl-pyridin-2-yl]-phenyl}-pyridin-2-ylamine] showed a melting point of 172 °C.
For `CC(C)(C)NS(=O)(=O)c1ccc(-c2cc(-c3cc(C(F)(F)F)cc(-c4ccc(C(F)(F)F)cc4)n3)ccn2)s1` [Example 319, 5-[4-Trifluoromethyl-6-(4-trifluoromethyl-phenyl)-[2,4′]bipyridinyl-2′-yl]-thiophene-2-sulfonic acid tert-butylamide], the melting point was 220 °C.
In the case of `CCOc1cc(-c2cc(C(F)(F)F)nc(-c3nc(-c4cccc(S(N)(=O)=O)c4)no3)n2)ccc1C(F)(F)F` [Example 91, 3-{5-[4-(3-Ethoxy-4-trifluoromethyl-phenyl)-6-trifluoromethyl-pyrimidin-2-yl]-[1,2,4]oxadiazol-3-yl}-benzenesulfonamide], the melting point is reported as 227 °C.
Work on `NS(=O)(=O)c1ccc(-c2cccc(-c3nc(-c4ccc(F)cc4)cc(C(F)(F)F)n3)c2)s1` [Example 395, 5-{3-[4-(4-Fluoro-phenyl)-6-trifluoromethyl-pyrimidin-2-yl]-phenyl}-thiophene-2-sulfonic acid amide] yielded a melting point of 228.5 °C.
`Cc1cc(-c2cc(C(F)(F)F)nc(-c3ccnc(-c4ccc(N)nc4)c3)n2)ccc1C(F)(F)F` [Example 121, 4-[4-(3-Methyl-4-trifluoromethyl-phenyl)-6-trifluoromethyl-pyrimidin-2-yl]-[2,3′]bipyridinyl-6′-ylamine] gave a melting point of 223 °C.
Compound `CN(C)S(=O)(=O)c1cccc(-c2cc(-c3nc(-c4ccc(C(F)(F)F)cc4)cc(C(F)(F)F)n3)ccn2)c1` [Example 401, N,N-Dimethyl-3-{4-[4-trifluoromethyl-6-(4-trifluoromethyl-phenyl)-pyrimidin-2-yl]-pyridin-2-yl}-benzenesulfonamide] has a melting point of 225 °C.
Compound `Cc1cc(-c2ccc(C(F)(F)F)cc2)nc(-c2ccnc(-c3ccc(N)nc3)c2)n1` [Example 113, 4-[4-Methyl-6-(4-trifluoromethyl-phenyl)-pyrimidin-2-yl]-[2,3′]bipyridinyl-6′-ylamine] has a melting point of 232 °C.
In the case of `Nc1ccc(-c2cn(-c3nc(-c4ccc(C(F)(F)F)cc4)cc(C(F)(F)F)n3)cn2)cn1` [Example 13, 5-{1-[4-Trifluoromethyl-6-(4-trifluoromethyl-phenyl)-pyrimidin-2-yl]-1H-imidazol-4-yl}-pyridin-2-ylamine], the melting point is reported as 286 °C.
`Cc1cc(-c2ccc(C(F)(F)F)cc2)cc(-c2ccc(-c3ccc(N)nc3)s2)n1` [Example 252, 5-{5-[6-Methyl-4-(4-trifluoromethyl-phenyl)-pyridin-2-yl]-thiophen-2-yl}-pyridin-2-ylamine] gave a melting point of 196 °C.
`Nc1ncc(-c2cn(-c3nc(-c4cccc(C(F)(F)F)c4)cc(C(F)(F)F)n3)cn2)cn1` [Example 139, 5-{1-[4-Trifluoromethyl-6-(3-trifluoromethyl-phenyl)-pyrimidin-2-yl]-1H-imidazol-4-yl}-pyrimidin-2-ylamine] gave a melting point of 223 °C.
